Patent US8128943B2, “Use of oxazole derivatives for controlling fish parasites” (Novartis AG, priority 2005, dated 2012)

Tests used:
fish = assay: Tolerance by fish in long lasting tests on salmon; assay type: in vivo
salmon lice [1] = assay: Toxicity to salmon lice, contact action test in sea water beakers; assay type: in vivo, salmon louse; details: after 24 hours; lowest concentration of 5 μg/l in sea water, 10° C.; adult salmon lice
Procedure: Biological Examples 1. Toxicity to Salmon Lice (In Vitro Test) a) Collecting and Cultivating the Salmon Lice
Adult and pre-adult stages of the salmon louse are gently removed with broad forceps from naturally infected Atlantic salmon which have been kept in fish farms, separated according to stage and sex, and kept in sea water tanks at 10° C. and under continuous aeration. The sea water used for cultivating the lice comes from the fish farm from which the infected salmon have been taken. The tests themselves are carried out over 48 hours after collecting the lice.
b) In Vivo Test for Determining the Contact Action of the Control Agent
Into each of three test sets of three 500 ml-glass beakers, filled with sea water (salinity […], temperature 10° C.) containing 5, 500 and 5000 μg/l of the active substance, respectively, 5 female and 5 male adults of salmon lice are added. The beaker are then transferred to an incubator and held at 10° C. for 48 hours in the dark. Live survival of the salmon lice is determined at 1, 24 and 48 hours from the start of the exposure. All lice are examined and recorded as alive, moribund or dead.

salmon lice [2] = assay: Toxicity against salmon lice (in vivo test) on naturally infected Atlantic salmon, bath treatment; details: long lasting tests on salmon; one single treatment at 0.1 ppm
Procedure: 2. Toxicity Against Salmon Lice (In Vivo Test)
Five naturally infected Atlantic salmon are taken from the cage and transferred to well aerated sea water tanks. They remain there for 48 hours for acclimatization, and feed is withheld for 24 hours before the addition of test compound. A group of 5 salmon is treated at a concentration of 1.0 ppm of test compound, and a second group of 5 salmon is treated at a concentration of 0.1 ppm. The fish are kept for 24 hours in fresh sea water (without test compound) and a count is then made of dead and still living parasites. An untreated group of fish is also included in the evaluation. The test is carried out in triplicate.

sea lice = details: in sea water; cited from earlier work

Row | Compound | survival rate (salmon lice [1]) [%] | concentration required / effective to combat sea lice (sea lice) [ppm] | also measured
1 | Fc1cccc(F)c1C1=NC(c2ccc(-c3ccc(C(F)(F)F)cc3)cc2)CO1 (centres unmarked) [2-(2,6-Difluorophenyl)-4-(4′-trifluoromethylbiphenyl-4-yl)-4,5-dihydro-oxazole] | 0 |  | tolerance by fish (fish): well tolerated by fish; control (salmon lice [2]): 100%; duration of 100% control (salmon lice [2]): at least 3 month
2 | FC(F)(F)c1ccc(-c2ccc(C3COC(c4c(Cl)cccc4Cl)=N3)cc2)cc1 (centres unmarked) [2-(2,6-Dichlorophenyl)-4-(4′-trifluoromethylbiphenyl-4-yl)-4,5-dihydro-oxazole] | 0 |  | 
3 | COP(=O)(OC)C(O)C(Cl)(Cl)Cl (centres unmarked) [Trichlorfon, dimethyl-2,2,2-trichloro-1-hydroxyethylphosphonate] |  | 300 | 
4 | Fc1cccc(Cl)c1C1=NC(c2ccc(-c3ccc(C(F)(F)F)cc3)cc2)CO1 (centres unmarked) [2-(2-Chloro-6-fluorophenyl)-4-(4′-trifluoromethylbiphenyl-4-yl)-4,5-dihydro-oxazole] | 0 |  | 
5 | COP(=O)(OC)OC=C(Cl)Cl [Dichlorvos, 2,2-dichloroethenyldimethyl phosphate] |  | ≥ 1 | 
